Activity calls are given as the source filed them. The calls are words filed in the database; no cut-off is given here.
Tests used:
[1] = Cytotoxicity against human OVCAR4 cells at 10 uM after 48 hrs by SRB assay; assay type: functional; conditions: OVCAR-4, 48 h, read-out: GI
M14 = experiment: Cytotoxicity against human M14 cells at 10 uM after 48 hrs by SRB assay; assay type: functional
K562 [2] = experiment: Cytotoxicity against human K562 cells after 48 hrs by SRB assay; assay type: functional; conditions: K562, 48 h
[3] = Cytotoxicity against human RPMI8226 cells at 10 uM after 48 hrs by SRB assay; assay type: functional; conditions: RPMI-8226, 48 h, read-out: GI
MDA-MB-435 = experiment: Cytotoxicity against human MDA-MB-435 cells at 10 uM after 48 hrs by SRB assay; assay type: functional; conditions: MDA-MB-435, 48 h, read-out: GI
[4] = Cytotoxicity against human SW620 cells at 10 uM after 48 hrs by SRB assay; assay type: functional; conditions: SW-620, 48 h, read-out: GI
[5] = Cytotoxicity against human Hs 578T cells at 10 uM after 48 hrs by SRB assay; assay type: functional; conditions: read-out: GI
CCRF-CEM = experiment: Cytotoxicity against human CCRF-CEM cells after 48 hrs by SRB assay; assay type: functional
ACHN = experiment: Cytotoxicity against human ACHN cells at 10 uM after 48 hrs by SRB assay; assay type: functional; conditions: read-out: GI
UACC-257 = experiment: Cytotoxicity against human UACC257 cells at 10 uM after 48 hrs by SRB assay; assay type: functional
[6] = Cytotoxicity against human HCC2998 cells at 10 uM after 48 hrs by SRB assay; assay type: functional; conditions: HCC 2998, 48 h, read-out: GI
[7] = Cytotoxicity against human BT549 cells at 10 uM after 48 hrs by SRB assay; assay type: functional; conditions: BT-549, 48 h, read-out: GI
Calf thymus DNA [8] = experiment: Binding affinity to calf thymus DNA assessed as melting temperature by spectrophotometric analysis (reference value: 60 degC); assay type: nucleic-acid assay; conditions: Bos taurus
[9] = Cytotoxicity against human HOP92 cells at 10 uM after 48 hrs by SRB assay; assay type: functional; conditions: HOP-92, 48 h, read-out: GI
[10] = Cytotoxicity against human PC3 cells at 10 uM after 48 hrs by SRB assay; assay type: functional; conditions: PC-3, 48 h, read-out: GI
A549 [11] = experiment: Cytotoxicity against human A549 cells after 48 hrs by SRB assay; assay type: functional; conditions: A549, 48 h, pooled result: one value given for 8 cell lines, strains, targets or settings
786-0 = experiment: Cytotoxicity against human 786-0 cells after 48 hrs by SRB assay; assay type: functional; conditions: 786-0, 48 h, pooled result: one value given for 8 cell lines, strains, targets or settings
[12] = Cytotoxicity against human OVCAR5 cells at 10 uM after 48 hrs by SRB assay; assay type: functional; conditions: OVCAR-5, 48 h, read-out: GI
[13] = Cytotoxicity against human PC3 cells after 48 hrs by SRB assay; assay type: functional; conditions: PC-3, 48 h
K562 [14] = experiment: Cytotoxicity against human K562 cells at 10 uM after 48 hrs by SRB assay; assay type: functional; conditions: K562, 48 h, read-out: GI
SF-295 = experiment: Cytotoxicity against human SF295 cells at 10 uM after 48 hrs by SRB assay; assay type: functional
[15] = Cytotoxicity against human SF268 cells after 48 hrs by SRB assay; assay type: functional; conditions: SF-268, 48 h, pooled result: one value given for 6 cell lines, strains, targets or settings
Calf thymus DNA [16] = experiment: Binding affinity to calf thymus DNA by UV-vis spectrometric analysis; assay type: nucleic-acid assay; conditions: Bos taurus
MCF7 = experiment: Cytotoxicity against human MCF7 cells after 48 hrs by SRB assay; assay type: functional; conditions: MCF7, 48 h, pooled result: one value given for 6 cell lines, strains, targets or settings
NCI-H23 = experiment: Cytotoxicity against human NCI-H23 cells at 10 uM after 48 hrs by SRB assay; assay type: functional; conditions: NCI-H23, 48 h, read-out: GI
[17] = Cytotoxicity against human TK10 cells at 10 uM after 48 hrs by SRB assay; assay type: functional; conditions: TK-10, 48 h, read-out: GI
[18] = Cytotoxicity against human COLO205 cells at 10 uM after 48 hrs by SRB assay; assay type: functional; conditions: COLO 205, 48 h, read-out: GI
HCT-15 = experiment: Cytotoxicity against human HCT15 cells at 10 uM after 48 hrs by SRB assay; assay type: functional
UACC-62 = experiment: Cytotoxicity against human UACC62 cells at 10 uM after 48 hrs by SRB assay; assay type: functional
[19] = Cytotoxicity against human DU145 cells after 48 hrs by SRB assay; assay type: functional; conditions: DU-145, 48 h, read-out: LC50 (the source's name)
[20] = Cytotoxicity against human LOXIMVI cells after 48 hrs by SRB assay; assay type: functional; conditions: LOX IMVI, pooled result: one value given for 9 cell lines, strains, targets or settings
[21] = Cytotoxicity against human LOXIMVI cells at 10 uM after 48 hrs by SRB assay; assay type: functional; conditions: LOX IMVI, read-out: GI
A549 [22] = experiment: Cytotoxicity against human A549 cells at 10 uM after 48 hrs by SRB assay; assay type: functional; conditions: A549, 48 h, read-out: GI
[23] = pooled result: one value given for 6 cell lines, strains, targets or settings
[24] = pooled result: one value given for 2 cell lines, strains, targets or settings

Structure (SMILES): Cc1nc2ccc(Nc3nc(NCCN4CCOCC4)nc(Nc4ccc(F)cc4)n3)cc2n1Cc1ccccc1
- inhibition of growth at 10 µM [1]: 1.85%
- growth inhibition (GI) (M14): Active
- LC50 (K562 [2]): 55 µM
- inhibition of growth at 10 µM [3]: 96.9%
- inhibition of growth at 10 µM (MDA-MB-435): 47.8%
- inhibition of growth at 10 µM [4]: 57.6%
- inhibition of growth at 10 µM [5]: 59.4%
- LC50 (CCRF-CEM): 55 µM
- GI50 (CCRF-CEM; [23]): 1960 nM
- TGI (CCRF-CEM; [23]): 6.82 µM
- inhibition of growth at 10 µM (ACHN): 47.8%
- growth inhibition (GI) (UACC-257): Active
- inhibition of growth at 10 µM [6]: 55.4%
- inhibition of growth at 10 µM [7]: 50.1%
- Tm (Calf thymus DNA [8]): 80.1 °C
- inhibition of growth at 10 µM [9]: 69.7%
- inhibition of growth at 10 µM [10]: 28.5%
- GI50 (A549 [11]): 3.21 µM
- LC50 (A549 [11]): 38.5 µM
- TGI (A549 [11]): 18.5 µM
- GI50 (786-0): 3.03 µM
- LC50 (concentration killing 50% of cells) (786-0): 14.6 µM
- TGI (786-0): 19.3 µM
- inhibition of growth at 10 µM [12]: 15.9%
- LC50 [13]: 62.5 µM
- GI50 [13, 24]: 4.41 µM
- TGI [13, 24]: 43.9 µM
- inhibition of growth at 10 µM (K562 [14]): 97%
- growth inhibition (GI) (SF-295): Active
- GI50 [15]: 2720 nM
- LC50 (concentration killing 50% of cells) [15]: 15.3 µM
- TGI [15]: 12 µM
- Ka (Calf thymus DNA [16]): 7.19 ×10⁴ /M
- GI50 (MCF7): 2040 nM
- LC50 (concentration killing 50% of cells) (MCF7): 20.6 µM
- TGI (MCF7): 8.99 µM
- inhibition of growth at 10 µM (NCI-H23): 33%
- inhibition of growth at 10 µM [17]: 39.4%
- inhibition of growth at 10 µM [18]: 98.8%
- growth inhibition (GI) (HCT-15): Active
- growth inhibition (GI) (UACC-62): Active
- CC50 [19]: 62.5 µM
- GI50 [20]: 1910 nM
- LC50 [20]: 24.2 µM
- TGI [20]: 4.08 µM
- inhibition of growth at 10 µM [21]: 94.3%
- inhibition of growth at 10 µM (A549 [22]): 53.7%

Reference: ChEMBL document CHEMBL3745645, “Synthesis, in vitro antitumor activity, dihydrofolate reductase inhibition, DNA intercalation and structure-activity relationship studies of 1,3,5-triazine analogues” (Bioorg Med Chem Lett, 2016)
